Measured values published in patent publication US20250009702A1 (SICHUAN JIUZHANG BIOLOGICAL SCIENCE AND TECHNOLOGY CO., LTD., priority 2021, published 2025).

Experiments:
[1] = tested on: pfeiffer cancer cells (diffuse large B-cell lymphoma cell line); assay: MTS assay of the in vitro inhibitory effect on DLBCL cells (pfeiffer); type: cell-based; details: for OD value Mean / OD value 1 / OD value 2 / OD value 3: MTS, 490 nm; for OD value 1: well 1; for OD value 2: well 2; for OD value 3: well 3
Procedure: 2.2 MTS Assay of the In Vitro Inhibitory Effect of the Treatment Group on DLBCL Cells (Pfeiffer)
The cells in logarithmic growth phase were digested with 0.25% trypsin, washed with the basic medium, and centrifuged (1000 r/min, twice in 5 minutes). The cells were suspended with complete medium, and the cell concentration was adjusted to […], which was inoculated into a 96-well plate at 50 μl/well (6×10^3 cells/well).
The next day, after the cells adhered to the wall, the drug was given to each group and then incubated for 48 h at a constant temperature of 37° C. under 5% CO2. The dosage for each well is 100 μl. For the blank group, no cell was inoculated, and an equal amount of medium (100 μl) was added; the negative control group received an equal amount of medium (100 μl) after cell inoculation, and 3 wells were set for one group.
20 μl of MTS was added to each well. The plate was further cultivated for 3 h for color development, and then shaken for 10 seconds before testing, to mix well.
The OD value was determined at a wavelength of 490 nm using an enzyme-linked immunosorbent assay (ELISA), and the OD value of the blank control was adjusted to 0.

[2] = tested on: DLBCL in the orbit (DLBCL pfeiffer cell lines); assay: In vivo treatment of DLBCL in the orbit (pfeiffer transplanted tumor model)
Procedure: DLBCL pfeiffercell lines were purchased from ATCC, USA.
(§1) BALB/c mice: 60 mice, half male and half female, 3-4 weeks old, weighing 15-22 g, purchased from the Experimental Animal Management Center of West China Medical Center.
The cells were thawed in a 37° C. water bath according to the method provided by ATCC, and cultured in RPMI-1640 medium. The medium was exchanged or the cells were passaged every 1-2 days. When the cells were in a stable proliferative state, the cells with good vitality were selected from the 2nd to 3rd generations and counted under a microscope using a cell counting board. The concentration of inoculate cells was adjusted to 1.5×10^8/ml, and sealed for later use.
The tumor cell suspension inoculation method was used. Before cell inoculation, all mice were subjected to cesium-137 radiation to further immunosuppress and improve the success rate of inoculation. Tumor cells were inoculated within 6 hours after irradiation. After disinfecting with 75% alcohol around the eyes, 0.1 ml of tumor cell suspension was drawn using an 1 ml empty needle, and injected into the orbit through the skin of the upper temporal eyelid. […] After inoculation, high-pressure sterilized water containing 100000 U/L of gentamicin was given for one week to prevent infection. 5% glucose with egg yolk was orally administered daily to enhance nutrition. The growth state of mice and local tumor growth was observed every day.
The drug preparation was formulated prior to daily administration, and given for 14 days.
(§2) During the administration period, the growth of the mouse tumor, eating, activity, and other adverse reactions were observed and recorded every other day. After 14 days of administration, the mice were euthanized using cervical dislocation method, and their body weight and tumor size were measured and recorded according to the pre-administration numbers. The tumor inhibition rate (%) was calculated based on tumor weight.

[3] = tested on: DLBCL in the brain (DLBCL Ly8 cell lines); assay: In vivo treatment of DLBCL in the brain (Ly8 transplanted tumor model); details: i.p. 3 mg/kg once every two days
Text: DLBCL Ly8 cell lines were purchased from the Cancer Hospital of Fudan University, which were suspended, cultured, and passaged in 10% calf serum DMEM complete medium, with stable growth. Cells in the logarithmic growth phase were collected, centrifuged, counted, and diluted to 10^4/μl for later use. Cells were inoculated at 2×10^4 cells/animal.
as §1
The mice were anesthetized by intraperitoneal injection of 1% pentobarbital sodium (0.2 μl), fixed on a stereotactic device, and disinfected with 2% chlorhexidine iodine solution on the skin of skull part. The injection site of the syringe was 0.1 cm to the left or right of the midline of the skull, and 0.3 cm in front of the coronal suture in mice. The microsyringe was sequentially penetrated through the skin and skull of the mouse skull part, and was fixed about 1-2 mm into the skull. 2 μl of Ly8 cell suspension was slowly injected (about 2×10^4 cells), and the injection was performed within 15 minutes, followed by leaving the needle for 5 minutes to allow the cells to fully attach, and then slowly removing the needle. […] During sleep after anesthesia, the mice were kept at 30° C. for 2 h. After anesthesia wore off, the mice were placed at room temperature of 25° C., and the surface changes were observed 24 h after inoculation. The following symptoms were observed: topical protrusion on the injection side, body emaciation, lethargy, and decreased mobility.
The mice in the above test drug groups receiving the prepared drug were administered by intraperitoneal injection at 0.2 mL/10 g body weight. The drug preparation was formulated prior to daily administration, and given for 14 days.
as §2

[4] = Homo sapiens, 10 μg/ml, 48 h, pfeiffer cells, read-out: Inhibition rate (%)
[5] = i.p. 3 mg/kg once every two days, 14 days

O=C(/C=C/c1ccc(O)c(O)c1)O[C@@H]1C[C@](O)(C(=O)O)C[C@@H](O)[C@H]1O [CHA, Chlorogenic acid]
OD value Mean ([1]; 5 μg/ml, 48 h): 1.263
OD value 1 ([1]; 5 μg/ml, 48 h): 1.335
OD value 2 ([1]; 5 μg/ml, 48 h): 1.221
OD value 3 ([1]; 5 μg/ml, 48 h): 1.233
OD value Mean ([1]; 10 μg/ml, 48 h): 1.149
OD value 1 ([1]; 10 μg/ml, 48 h): 1.156
OD value 2 ([1]; 10 μg/ml, 48 h): 1.142
OD value 3 ([1]; 10 μg/ml, 48 h): 1.15
OD value Mean ([1]; 30 μg/ml, 48 h): 0.998
OD value 1 ([1]; 30 μg/ml, 48 h): 1.006
OD value 2 ([1]; 30 μg/ml, 48 h): 1.007
OD value 3 ([1]; 30 μg/ml, 48 h): 0.98
OD value Mean ([1]; 50 μg/ml, 48 h): 0.628
OD value 1 ([1]; 50 μg/ml, 48 h): 0.630
OD value 2 ([1]; 50 μg/ml, 48 h): 0.621
OD value 3 ([1]; 50 μg/ml, 48 h): 0.634
OD value Mean ([1]; 100 μg/ml, 48 h): 0.658
OD value 1 ([1]; 100 μg/ml, 48 h): 0.661
OD value 2 ([1]; 100 μg/ml, 48 h): 0.65
OD value 3 ([1]; 100 μg/ml, 48 h): 0.664
cell morphology / growth of pfeiffer cancer cell lines under inverted microscope ([1]; 50-100 μg/ml, 48 h): significant inhibitory effect
inhibition at 5 µg/mL ([1]; Homo sapiens, 5 μg/ml, 48 h, pfeiffer cells, read-out: Inhibition rate (%)): 45.7%
inhibition at 10 µg/mL [1, 4]: 50.6%
inhibition at 30 µg/mL ([1]; Homo sapiens, 30 μg/ml, 48 h, pfeiffer cells, read-out: Inhibition rate (%)): 57.1%
inhibition at 50 µg/mL ([1]; Homo sapiens, 50 μg/ml, 48 h, pfeiffer cells, read-out: Inhibition rate (%)): 73%
inhibition at 100 µg/mL ([1]; Homo sapiens, 100 μg/ml, 48 h, pfeiffer cells, read-out: Inhibition rate (%)): 71.7%
tumor inhibition rate ([1]; concentration 50-100 μg/ml, pfeiffer cells): 71.68-72.97%
inhibitory effect on pfeiffer cancer cells compared with methotrexate ([1]; same dose 10 μg/ml): higher inhibitory effect

CN(Cc1cnc2nc(N)nc(N)c2n1)c1ccc(C(=O)N[C@@H](CCC(=O)O)C(=O)O)cc1 [methotrexate]
Body weight (g) Before administration ([2]; before administration, group later given i.p. 3 mg/kg once every two days): 19.31 ± 0.66 g
Body weight (g) After administration [2, 5]: 18.23 ± 0.79 g
Survival number (mice) [2, 5]: 6 mice
Tumor inhibition rate (%) [2, 5]: 41.14%
deaths ([2]; positive control group, i.p. 3 mg/kg once every two days): 1
Survival number (mouse) ([3]; 14 days): 6 mouse
Tumor inhibition rate (%) ([3]; 14 days): 41.06%
Tumor weight ([3]; 14 days): 0.79 ± 0.12 g
Weight (g) After treatment ([3]; 14 days): 17.26 ± 0.65 g
deaths ([3]; positive control group): 1
OD value Mean ([1]; 10 μg/ml, 48 h): 1.193
OD value 1 ([1]; 10 μg/ml, 48 h): 1.202
OD value 2 ([1]; 10 μg/ml, 48 h): 1.193
OD value 3 ([1]; 10 μg/ml, 48 h): 1.185
inhibition at 10 µg/mL [1, 4]: 48.7%
